Results published in EP0524173B1, “SOLUBILIZATION AND PURIFICATION OF THE GASTRIN RELEASING PEPTIDE RECEPTOR” (BERLEX LABORATORIES, INC., priority 1989, dated 1991).
Where a SMILES comes first, the peptide text is derived from it. [ ]: non-standard residue; d: D form. Nle = CCCC[C@H](N)C(=O)O

Key:
[1] = target: T1, GRP receptor (Mus musculus, UniProt P21729); assay: ^125I-GRP ligand binding assay, detergent solubilized Swiss 3T3 fibroblast membranes; conditions: for Solubilized Membranes Counts/minute Bound Measured as % of Total Added: 10 µM nucleotide added to control containing MgCl2, 0.075% CHAPS, 0.015% CHS, control 28
T1 construct: endogenous in cells; host or cells: mouse Swiss 3T3 fibroblasts (membranes; intact or solubilized with CHAPS/CHS)
Method: Swiss 3T3 fibroblast membranes, prepared in Example 1, were suspended at 15 mg protein/ml in 50 mM HEPES, pH 7.5, 1.0 mM EGTA, 100 mM NaCl, 0.25 M sucrose, 50 µg/ml leupeptin, 5 µg/ml pepstatin, 10 µg/ml aprotinin, 30 µg/ml bacitracin, and 0.5 mM phenylmethylsulfonyl fluoride. A mixture of 3-[(3cholamidopropyl) dimethylammonio]-1- propane sulfonate (CHAPS) and cholesteryl hemisuccinate (CHS) in a ratio of 10:1 was added slowly to yield a final concentration of 0.75% CHAPS. The extract was incubated at 21°C for 30 minutes, cooled to 4°C and the insoluble material was removed by centrifugation at 100,000 x gravity for 60 minutes.
For assays of detergent solubilized membrane extracts, the final CHAPS detergent concentration was adjusted to between 0.050% and 0.20%. The concentration of CHS was maintained at 1/5 to 1/10 the concentration of CHAPS. Samples were also prepared omitting the BSA. After incubation at 15°C for 30 minutes, samples were cooled to 0°C. Bound ligand (^125I-GRP:GRP receptor complex) was recovered by rapid filtration through polyethyleneimine treated Whatman GF/B filters, followed by four washes with 4 mls of ice cold Tris buffer (50 mM Tris/Cl, pH 7.5). The filters were counted in an Isodata 500 gamma counter.
Scatchard analysis of ^125I-GRP binding to intact and solubilized Swiss 3T3 membranes was done. One particular experiment is discussed below, where the binding parameters of the solubilized and the membrane bound form of the receptor are determined under similar conditions.

[2] = target: T1, GRP receptor; assay: ^125I-GRP ligand binding assay, intact Swiss 3T3 fibroblast membranes; conditions: 5 µM nucleotide added to control containing MgCl2; control 28.9
Method: For assays of detergent solubilized membrane extracts, the final CHAPS detergent concentration was adjusted to between 0.050% and 0.20%. The concentration of CHS was maintained at 1/5 to 1/10 the concentration of CHAPS. Samples were also prepared omitting the BSA. After incubation at 15°C for 30 minutes, samples were cooled to 0°C. […] The filters were counted in an Isodata 500 gamma counter.
One particular experiment is discussed below, where the binding parameters of the solubilized and the membrane bound form of the receptor are determined under similar conditions.

T1 sequence (P21729 whole entry): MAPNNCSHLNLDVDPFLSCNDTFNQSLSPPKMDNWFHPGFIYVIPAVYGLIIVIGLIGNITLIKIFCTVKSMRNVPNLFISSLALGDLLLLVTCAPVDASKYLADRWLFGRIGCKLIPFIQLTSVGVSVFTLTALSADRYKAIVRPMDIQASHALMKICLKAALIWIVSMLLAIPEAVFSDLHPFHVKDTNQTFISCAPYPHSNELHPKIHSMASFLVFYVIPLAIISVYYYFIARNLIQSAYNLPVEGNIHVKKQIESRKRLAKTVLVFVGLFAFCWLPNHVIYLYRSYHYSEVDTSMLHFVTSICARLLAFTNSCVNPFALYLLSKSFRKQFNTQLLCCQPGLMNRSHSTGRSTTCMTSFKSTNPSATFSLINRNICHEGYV

What does the source list for Nc1nc2c(ncn2[C@@H]2O[C@H](COP(=O)(O)OP(=O)(O)NP(=O)(O)O)[C@@H](O)[C@H]2O)c(=O)[nH]1 [GMPPNP]?
Solubilized Membranes Counts/minute Bound Measured as % of Total Added [1]: 26.5%; Intact Membranes Counts/minute Bound Measured as % of Total Added [2]: 10.5%

Nc1ncnc2c1ncn2[C@@H]1O[C@H](COP(=O)(O)OP(=O)(O)NP(=O)(O)O)[C@@H](O)[C@H]1O [AMPPNP] was tested. Which “Solubilized Membranes Counts/minute Bound Measured as % of Total Added” value [1] did it give?
The value was 27.8%.

What about the “Intact Membranes Counts/minute Bound Measured as % of Total Added” value [2] of the same compound?
The value was 33.4%.

What does the source list for Nc1nc2c(ncn2[C@@H]2O[C@H](COP(=O)(O)OP(=O)(O)OP(=O)(O)O)[C@@H](O)[C@H]2O)c(=O)[nH]1 [GTP]?
Solubilized Membranes Counts/minute Bound Measured as % of Total Added [1]: 27.5%; Intact Membranes Counts/minute Bound Measured as % of Total Added [2]: 10.7%

CCCC[C@H](NC(=O)[C@H](CC(C)C)NC(=O)[C@H](Cc1c[nH]cn1)NC(=O)CNC(=O)[C@@H](NC(=O)[C@H](C)NC(=O)[C@H](Cc1c[nH]c2ccccc12)NC(=O)[C@H](Cc1c[nH]cn1)NC(=O)[C@H](CC(N)=O)NC(=O)CNC(=O)[C@H](CCCNC(=N)N)NC(=O)[C@@H]1CCCN1C(=O)[C@H](Cc1ccc(O)cc1)NC(=O)[C@H](CCCC)NC(=O)[C@@H](N)CCCCN)C(C)C)C(N)=O [[Nle^14,27]GRP13-27] (H-K[Nle]YPRGNHWAVGHL[Nle]-NH2) was tested. Which IC50 ([1]; unlabeled competitor peptide) did it give?
Its IC50 is 300 pM.

For Nc1ncnc2c1ncn2[C@@H]1O[C@H](COP(=O)(O)OP(=O)(O)OP(=O)(O)O)[C@@H](O)[C@H]1O [ATP], which “Intact Membranes Counts/minute Bound Measured as % of Total Added” value [2] is on record?
Its value is 29.7%.

Which “time at which binding to the soluble receptor leveled off” value ([1]; 15°C, remained constant for up to 2 hours) does the source give for “3-(125Iodotyrosyl15) gastrin releasing peptide [^125I-GRP]” here?
The value was ≤ 20 min.
